Experimental data as given in ChEMBL document CHEMBL1139870, “Structure-guided optimization of small molecules inhibiting human immunodeficiency virus 1 Tat association with the human coactivator p300/CREB binding protein-associated factor” (J Med Chem, 2007).
The source made the active and inactive calls. The calls are words filed in the database; no cut-off is given here.

Molecular target: Cyclin-dependent kinase inhibitor 1 (Homo sapiens) (UniProt P38936)
Assay: Effect on p53-induced p21 transcription in response to DNA damage at 5 uM

Cyclin-dependent kinase inhibitor 1 (Homo sapiens), sequence (P38936 whole entry): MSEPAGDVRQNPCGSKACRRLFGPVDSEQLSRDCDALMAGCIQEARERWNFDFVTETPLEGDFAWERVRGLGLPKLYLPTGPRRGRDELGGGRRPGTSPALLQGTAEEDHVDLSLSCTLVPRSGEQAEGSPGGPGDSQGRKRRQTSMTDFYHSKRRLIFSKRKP

| Compound | Activity |
| --- | --- |
| Cc1ccc(NCCCN)c([N+](=O)[O-])c1 | inactive |
| CC(Cl)c1ccc(NCCCN)c([N+](=O)[O-])c1 (configuration not stated) | inactive |
